Data taken from patent US20070015823A1, “Ambruticin VS compounds” (priority 2004, published 2007).

Columns and labels:
[1] = system: A. fumigatus ATCC 204305; test: Broth microdilution antifungal susceptibility, NCCLS M38-A; assay type: cell-based, Aspergillus fumigatus; details: minimal concentration inhibiting >95% growth; average of at least two assays (except I-l and I-x)
[2] = system: A. flavus ATCC 204304; test: as above; assay type: cell-based, Aspergillus flavus; details: minimal concentration inhibiting >95% growth; average of at least two assays (except I-l and I-x)

Row | Molecule | MIC0 A. fumigatus ATCC 204305 [1] [µg/mL] | MIC0 A. flavus ATCC 204304 [2] [µg/mL]
1 | CC[C@H]1O[C@@H](/C(C)=C/C/C=C/[C@H]2[C@@H](C)[C@@H]2/C=C/[C@@H]2O[C@H](CCO)C[C@H](N(C)C)[C@H]2O)CC=C1C [II-b, (5S,6R)-5-dimethylamino-15-desmethylpolyangi-1,6-diol] | 8 | 8
2 | CC[C@H]1O[C@@H](/C(C)=C/[C@H](C)/C=C/[C@H]2[C@@H](C)[C@@H]2/C=C/[C@@H]2O[C@H](CC(=O)O)C[C@H](N)[C@H]2O)CC=C1C [Ambruticin VS-5, (5S,6R)-5-amino-6-hydroxypolyangioic acid, reference compound] | 1.64 | 1.09
3 | CC[C@H]1O[C@@H](/C(C)=C/[C@H](C)/C=C/[C@H]2[C@@H](C)[C@@H]2/C=C/[C@@H]2O[C@H](CC(=O)NCC(=O)OC)C[C@H](N(C)C)[C@H]2O)CC=C1C [I-ss, (5S,6R)-5-dimethylamino-6-hydroxy-N-(methoxycarbonylmethyl)polyangiamide] | 4 | 8
4 | CCC(=O)N(C)[C@H]1C[C@@H](CC(=O)O)O[C@@H](/C=C/[C@H]2[C@H](C)[C@@H]2/C=C/[C@@H](C)/C=C(\C)[C@H]2CC=C(C)[C@@H](CC)O2)[C@@H]1O [I-m, (5S,6R)-5-[N-methyl(propionamido)]-6-hydroxypolyangioic acid] | >32 | >32
5 | CC[C@H]1O[C@@H](/C(C)=C/C/C=C/[C@H]2[C@@H](C)[C@@H]2/C=C/[C@@H]2O[C@H](CC(=O)O)C[C@H](N(C)C)[C@H]2O)CC=C1C [II-a, (5S,6R)-5-dimethylamino-6-hydroxy-15-desmethylpolyangioic acid] | 0.6 | 0.92
6 | CC[C@H]1O[C@@H](/C(C)=C/[C@H](C)/C=C/[C@H]2[C@@H](C)[C@@H]2/C=C/[C@@H]2O[C@H](CCO)C[C@H](NCC(F)(F)F)[C@H]2O)CC=C1C [I-iii, (5S,6R)-5-(2,2,2-trifluroethyl)aminopolyangi-1,6-diol] | 16 | 16
7 | CC[C@H]1O[C@@H](/C(C)=C/[C@H](C)/C=C/[C@H]2[C@@H](C)[C@@H]2/C=C/[C@@H]2O[C@H](CC(=O)O)C[C@H](NC(=O)NCc3ccccc3)[C@H]2O)CC=C1C [I-s, (5S,6R)-5-(3-benzylureido)-6-hydroxypolyangioic acid] | 16 | 32
8 | CC[C@H]1O[C@@H](/C(C)=C/[C@H](C)/C=C/[C@H]2[C@@H](C)[C@@H]2/C=C/[C@@H]2O[C@H](CC(=O)O)C[C@H](N(CC3CC3)CC3CC3)[C@H]2O)CC=C1C [I-e, (5S,6R)-5-[di(cyclopropylmethyl)amino]-6-hydroxypolyangioic acid] | 4.0 | 3.33
9 | CC[C@H]1O[C@@H](/C(C)=C/[C@H](C)/C=C/[C@H]2[C@@H](C)[C@@H]2/C=C/[C@@H]2O[C@H](CC(=O)OC)C[C@H](N(C)C(C)=O)[C@H]2O)CC=C1C [I-k, methyl (5S,6R)-5-[N-methyl(acetamido)]-6-hydroxypolyangioate] | >32 | >32
10 | methyl (5S,6R,16R,17R)-5-tert-butoxycarbonylamino-6-hydroxy-16,17-epxoy-16,17-dihydropolyangiate [V-a] | >32 | >32
11 | CC[C@H]1O[C@@H](/C(C)=C/[C@H](C)/C=C/[C@H]2[C@@H](C)[C@@H]2/C=C/[C@@H]2O[C@H](CC(=O)NCCO)C[C@H](N(C)C)[C@H]2O)CC=C1C [I-rr, (5S,6R)-5-dimethylamino-6-hydroxy-N-(2-hydroxyethyl)polyangiamide] | 4 | 2
12 | CC[C@H]1O[C@@H](/C(C)=C/[C@H](C)/C=C/[C@H]2[C@@H](C)[C@@H]2/C=C/[C@@H]2O[C@H](CC(=O)O)C[C@H](NC(C)=O)[C@H]2O)CC=C1C [I-j, (5S,6R)-5-acetamido-6-hydroxypolyangioic acid] | 32 | >32
13 | CC[C@H]1O[C@@H](/C(C)=C/[C@H](C)/C=C/[C@H]2[C@@H](C)[C@@H]2/C=C/[C@@H]2O[C@H](CC(=O)O)C[C@H](N(C)Cc3nccs3)[C@H]2O)CC=C1C [I-x, (5S,6R)-5-(N-(2-thiazolyl)methyl-methylamino)-6-hydroxypolyangioic acid] | 2 | 4
14 | C=CCNC(=O)O[C@H]1[C@H](/C=C/[C@H]2[C@H](C)[C@@H]2/C=C/[C@@H](C)/C=C(\C)[C@H]2CC=C(C)[C@@H](CC)O2)O[C@H](CC(=O)O)C[C@@H]1N(C)C(=O)NCC=C [I-cc, (5S,6R)-5-(3-allyl-1-methylureido)-6-(allylcarbamoyl)polyangioic acid] | >32 | >32
15 | CC[C@H]1O[C@@H](/C(C)=C/[C@H](C)/C=C/[C@H]2[C@@H](C)[C@@H]2/C=C/[C@@H]2O[C@H](CC(=O)O)C[C@H](N(C)Cc3ccc4ccccc4c3)[C@H]2O)CC=C1C [I-f, (5S,6R)-5-(N-(2-naphthyl)methyl-methylamino)-6-hydroxypolyangioic acid] | 8.0 | 4.67
16 | (5S,6R,16S,17S)-5-amino-6-hydroxy-16,17-epxoy-16,17-dihydropolyangioic acid [V-d] | >32 | >32
17 | CC1=CC[C@H](/C(C)=C/[C@H](C)/C=C/[C@H]2[C@@H](C)[C@@H]2/C=C/[C@@H]2O[C@H](CC(=O)O)C[C@H](N(C)C)[C@H]2O)O[C@@H]1C [III-a, 24-norambruticin VS-3] | 0.71 | 1.6
18 | CC[C@H]1O[C@@H](/C(C)=C/[C@H](C)/C=C/[C@H]2[C@@H](C)[C@@H]2/C=C/[C@@H]2O[C@H](CC(=O)O)C[C@H](NC(=O)OC)[C@H]2O)CC=C1C [I-bb, (5S,6R)-5-methoxycarbonylamino-6-hydroxypolyangioic acid] | 16 | 32
19 | CC[C@H]1O[C@@H](/C(C)=C/[C@H](C)/C=C/[C@H]2[C@@H](C)[C@@H]2/C=C/[C@@H]2O[C@H](CC(=O)N(C)OC)C[C@H](N(C)C)[C@H]2O)CC=C1C [I-tt, (5S,6R)-5-dimethylamino-6-hydroxy-N-methoxy-N-methylpolyangiamide] | 8 | 4
20 | CC[C@H]1O[C@@H](/C(C)=C/[C@H](C)/C=C/[C@H]2[C@@H](C)[C@@H]2/C=C/[C@@H]2O[C@H](CC(=O)O)C[C@H](N(C)C(=O)OCC(C)C)[C@H]2O)CC=C1C [I-r, (5S,6R)-5-[N-methyl(isobutoxycarbonylamino)]-6-hydroxypolyangioic acid] | >32 | >32
21 | (5S,6R,16R,17R)-5-amino-6-hydroxy-16,17-epxoy-16,17-dihydropolyangioic acid [V-c] | 8 | 16
22 | CC[C@H]1O[C@@H](/C(C)=C/[C@H](C)/C=C/[C@H]2[C@@H](C)[C@@H]2/C=C/[C@@H]2O[C@H](CC(=O)O)C[C@H](NCC(F)F)[C@H]2O)CC=C1C [I-ggg, (5S,6R)-5-(2,2-difluoroethyl)amino-6-hydroxypolyangioic acid] | 4 | 8
23 | methyl (5S,6R,16S,17S)-5-tert-butoxycarbonylamino-6-hydroxy-16,17-epxoy-16,17-dihydropolyangiate [V-b] | >32 | >32
24 | CC[C@H]1O[C@@H](/C(C)=C/[C@H](C)/C=C/[C@H]2[C@@H](C)[C@@H]2/C=C/[C@@H]2O[C@H](CCO)C[C@H](N(C)C)[C@H]2O)CCC1C (stereo partly drawn) [IV-c] | 2 | 2
25 | CC[C@H]1O[C@@H](/C(C)=C/[C@H](C)/C=C/[C@H]2[C@@H](C)[C@@H]2/C=C/[C@@H]2O[C@H](CC(=O)OC)C[C@H](N(C)C(=O)OCC(C)C)[C@H]2O)CC=C1C [I-gg] | >32 | >32
26 | CC[C@H]1O[C@@H](/C(C)=C/[C@H](C)/C=C/[C@H]2[C@@H](C)[C@@H]2/C=C/[C@@H]2O[C@H](CC(=O)O)C[C@H](N(Cc3c[nH]cn3)Cc3c[nH]cn3)[C@H]2O)CC=C1C [I-g, (5S,6R)-5-{di [(4-imidazolyl)methyl]amino}-6-hydroxypolyangioic acid] | 22.67 | 24.0
27 | CC[C@H]1O[C@@H](/C(C)=C/[C@H](C)/C=C/[C@H]2[C@@H](C)[C@@H]2/C=C/[C@@H]2O[C@H](CC(=O)O)C[C@H](N(C)C)[C@H]2O)CC=C1C [Ambruticin VS-3, (5S,6R)-5-(dimethylamino)-6-hydroxypolyangioic acid, reference compound] | 0.44 | 0.64
